According to patent publication US4853385A, “7-N,8-N-Ethylenemitomycin 8-imines” (Kyowa Hakko Kogyo Co., Ltd., priority 1987, dated 1989):

Legend:
Sarcoma 180 solid tumor = assay: Antitumor activity against sarcoma 180 solid tumor (tumor volume T/C, ED50); type: in vivo; details: ddY mice; for CI (chemotherapy index, LD50/ED50): sarcoma 180 solid tumor, i.p.; for ED50: Mus musculus, Sarcoma-180, ip, 168 h, i.p. 24 h after s.c. implantation, tumor volume at 7 days, dose for T/C 0.5
Experimental: (§1) Some compounds were chosen from Compound I, and antitumor activity (ED50) against Sarcoma 180 solid tumor and acute toxicity (LD50) were measured.
(1) Effect on sarcoma 180 solid tumor
Sarcoma 180 cells of 5×10^6 were intraperitoneally implanted into ddY mice. Seven days after, the cells were collected from the ascites. The cells were washed once with a sterile physiological saline, and the cells were suspended in sterile physiological saline to prepare a cell suspension containing 5×10^7 cells per ml. 0.1 ml of the suspension was subcutaneously implanted into the right axilla of male ddY mice weighing 20±2 g. The test compound was dissolved in physiological saline with or without addition of Tween 80 and was administered intraperitoneally into each mouse of a group consisting of 5 mice at a dose of 0.1-0.2 ml, 24 hours after the implantation of the tumor cells.
The anti-tumor activity was determined in the following manner. 7 days after the implantation, the major axis (a) and the minor axis (b) of the tumor were measured to calculate a value of "a×b^2 /2" which corresponds to the volume of the tumor. The anti-tumor activity was expressed by the ratio (T/C) of the volume (T) of the tumors of the group of animals administered with the test compound to the corresponding volume (C) of tumors of the untreated animals.
(2) Determination of ED50 :
On graph paper, T/C was indicated by an arithmetic scale on the longitudinal axis and the administered amount of the test compound was indicated by a logarithmic scale on the lateral axis. The relationship between the dose and T/C was plotted by a straight line determined by the method of least squares, from which a dose corresponding to T/C of 0.5 was obtained.
CI in the table indicates chemotherapy index and given by:
As is clear from this definition, the CI value reflects selective toxicity against tumor. As the CI value is larger, the effect as an antitumor agent is more excellent, and from a clinical viewpoint, allowance of chemicals in dosage becomes broader. Therefore, the CI value is one of the most important indices in evaluation of antitumor agents.

[1] = system: mitomycin C-resistant P-388; assay: Antitumor activity against mitomycin C-resistant P-388; type: in vivo, CDF1 mice (P-388 from DBA/2 mice); details: single i.p.
Experimental: (§2) Some compounds were chosen from Compound I and antitumor activity against lymphocytic leukemia P-388 and mitomycin C-resistant P-388 was measured.
(§3) From the peritoneal cavity of P-388 ascitic tumor-bearing mice (DBA/2) 7 days after the implantation, an ascitic fluid was collected. The cell number of P-388 in the ascitic fluid was counted, and the cells were suspended in sterile physiological saline to prepare a tumor cell suspension containing 5×10^6 cells/ml. 0.2 ml (containing 1×10^6 cells) of the suspension was implanted intraperitoneally into CDF1 mice weighing 20 to 25 g. The test compound was intraperitoneally administered to each mouse of one test group consisting of 6 CDF1 mice at a single dosage in 24 hours after the implantation of the tumor. 33-Day observation gave the survived life span for each mouse. Evaluation of the effect of the test compound was made by a ratio of a mean survival days after the implantation of the mice treated with the test compound to a mean survival days of the mice untreated with the test compound in the control group (Increased Life Span, ILS%). Then, ILS*, which is a ratio of ILS % of the test compound to ILS % of mitomycin C used as a reference compound under the same conditions, was calculated and shown in Table 4.
Further, the experiment was carried out in the same manner as above, using lymphocytic leukemia P-388 resistant to mitomycin C. Evaluation of the effect of the test compound is shown by a ratio (ILS %) to a mean survival data of the control group (untreated mice).

[2] = system: lymphocytic leukemia P-388; assay: Antitumor activity against lymphocytic leukemia P-388; type: in vivo, CDF1 mice (P-388 from DBA/2 mice); details: single i.p., 33-day observation
Experimental: as §2
The experiment was carried out by the following method.
as §3

[3] = Acute toxicity (LD50, Beherns Kaerber's method); details: mouse, in vivo, ip; single i.p. administration, 14 days observation, ddY mice
Experimental: as §1
Each animal of the test group consisting of 5 ddY mice was administered intraperitoneally once with a test compound. […] The LD50 was determined by Beherns Kaerber's method.

In the case of `CO[C@@]12[C@H](COC(N)=O)C3=C(C(=O)C(C)=C4NCCN=C43)N1C[C@H]1[C@@H]2N1C` (stereo partly drawn) [Compound 1, 7-N,8-N-ethyleneporfiromycin 8-imine], the “CI (chemotherapy index, LD50/ED50)” value (Sarcoma 180 solid tumor) is reported as 1.73, the ED50 (Sarcoma 180 solid tumor) is reported as 1.5 mg/kg and the “ILS(%) (ratio to mean survival of the untreated control group)” value ([1]; mitomycin C-resistant P-388, dose 1.5 mg/kg) is reported as 135%. The “ILS* (ratio of ILS % of test compound to ILS % of mitomycin C)” value ([2]; P-388, dose 1.5 mg/kg) was 0.60 and the LD50 at 336 h [3] was 2.6 mg/kg.
For `CC1=C2NCCN=C2C2=C(C1=O)N1C[C@H]3[C@H](N3C)[C@]1(O)[C@H]2COC(N)=O` (stereo partly drawn) [Compound 2, 7-N,8-N--Ethylenemitomycin D 8-imine], the “CI (chemotherapy index, LD50/ED50)” value (Sarcoma 180 solid tumor) was 2.12, the ED50 (Sarcoma 180 solid tumor) was 10.6 mg/kg and the LD50 at 336 h [3] was 22.5 mg/kg.
In the case of `CO[C@]12[C@@H]3[C@H](CN1C1=C(C4=NCCNC4=C(C)C1=O)[C@@H]2COC(N)=O)N3C` (stereo partly drawn) [Compound 3, 7-N,8-N--Ethylenemitomycin E 8-imine], the “CI (chemotherapy index, LD50/ED50)” value (Sarcoma 180 solid tumor) is reported as 1.51, the ED50 (Sarcoma 180 solid tumor) is reported as 3.7 mg/kg and the LD50 at 336 h [3] is reported as 5.6 mg/kg.
With `C=C1C2=C(C(=O)C(C)=C3NCCN=C32)N2C[C@H]3[C@H](N3C)[C@]12O` (stereo partly drawn) [Compound 4, 9a-O--Demethyl-7-N,8-N--ethylenemitomycin G 8-imine] the “CI (chemotherapy index, LD50/ED50)” value (Sarcoma 180 solid tumor) was 2.11, the ED50 (Sarcoma 180 solid tumor) was 47.5 mg/kg and the LD50 at 336 h [3] was 100 mg/kg.
In the case of `CO[C@@]12[C@H](COC(N)=O)C3=C(C(=O)C(C)=C4NC5CCCCC5N=C43)N1C[C@H]1[C@@H]2N1C` (stereo partly drawn) [Compound 5, 7-N,8-N--(1,2-Cyclohexylene) porfiromycin 8-imine], the “ILS(%) (ratio to mean survival of the untreated control group)” value ([1]; mitomycin C-resistant P-388, dose 1.25 mg/kg) is reported as 144% and the “ILS* (ratio of ILS % of test compound to ILS % of mitomycin C)” value ([2]; P-388, dose 1.25 mg/kg) is reported as 0.56.
For `CO[C@@]12[C@H](COC(N)=O)C3=C(C(=O)C(C)=C4NCCN=C43)N1C[C@@H]1N[C@@H]12` [Compound A, 7-N,8-N-ethylenemitomycin C 8-imine, reference compound], the “CI (chemotherapy index, LD50/ED50)” value (Sarcoma 180 solid tumor) was 1.10, the ED50 (Sarcoma 180 solid tumor) was 5.9 mg/kg and the “ILS(%) (ratio to mean survival of the untreated control group)” value ([1]; mitomycin C-resistant P-388, dose 100 mg/kg) was 107%. The “ILS* (ratio of ILS % of test compound to ILS % of mitomycin C)” value ([2]; P-388, dose 100 mg/kg) was 0.43 and the LD50 at 336 h [3] was 6.5 mg/kg.
